Test results reported in the OPERA property sets (Mansouri et al. 2018).
Values after ≈ are worked out from the molar mass of the structure shown.

Which solubility (20 °C) does the source give for `CCCc1nnc(NS(=O)(=O)c2ccc(N)cc2)s1` here?
The solubility was 0.493 mM (≈ 147 µg/mL).

With `CN(C)C(=O)c1cccc(C(=O)N(C)C)c1` as the molecule, how does the solubility (30 °C) read?
Its solubility is 3070 mM (≈ 676000 µg/mL).

With `Oc1c(Cl)cc(Cl)cc1Cc1ccccc1` as the molecule, how does the solubility (25 °C) read?
Its solubility is 0.0229 mM (≈ 5.8 µg/mL).

For `NCCCCCCNCCCCCCCCCCC(=O)O`, which solubility (20 °C) is on record?
Its solubility is 4.99 mM (≈ 1500 µg/mL).

With `COc1cc2nccnc2c(N)c1OC` as the molecule, how does the solubility (22 °C) read?
The solubility was 19.5 mM (≈ 4000 µg/mL).

For `O=C(O)CSCC(=O)O`, which solubility (25 °C) is on record?
The solubility was 2660 mM (≈ 400000 µg/mL).

For `CC12CCC(C(CO)C1=O)C2(C)C` (stereo not given), which solubility is on record?
Its solubility is 610 mM (≈ 111000 µg/mL).

With `O=C1C=CC(=NO)C=C1` as the molecule, how does the solubility (20 °C) read?
Its solubility is 28.4 mM (≈ 3500 µg/mL).

Which solubility (25 °C) does the source give for `O=[N+]([O-])c1ccc(O)c([N+](=O)[O-])c1-c1ccccc1` here?
Its solubility is 0.192 mM (≈ 50 µg/mL).

For `O=C(O)CCCP(=O)(O)O`, which solubility (20 °C) is on record?
Its solubility is 3170 mM (≈ 533000 µg/mL).

Which solubility (20 °C) does the source give for `Ic1ccc2c(c1)Sc1ccccc1N2` here?
The solubility was 0.000118 mM (≈ 0.0384 µg/mL).

For `Nc1ncc2[nH]cnc2n1`, which solubility (20 °C) is on record?
Its solubility is 61.7 mM (≈ 8330 µg/mL).

For `CCCC(Br)C(=O)NC(N)=O` (stereo not given), which solubility is on record?
Its solubility is 37.3 mM (≈ 8330 µg/mL).

With `Cn1cc([N+](=O)[O-])c(=O)[nH]c1=O` as the molecule, how does the solubility (25 °C) read?
The solubility was 10.1 mM (≈ 1720 µg/mL).

With `CCCCCCNC(=O)c1cccnc1` as the molecule, how does the solubility (25 °C) read?
Its solubility is 3.01 mM (≈ 620 µg/mL).

For `COc1ccc(CO)cc1`, which solubility (20 °C) is on record?
Its solubility is 14.5 mM (≈ 2000 µg/mL).

For `Cc1ncc2nccnc2n1`, which solubility (20 °C) is on record?
Its solubility is 760 mM (≈ 111000 µg/mL).

Which solubility (20 °C) does the source give for `CCC(CC)COC(C)=O` here?
Its solubility is 44.4 mM (≈ 6400 µg/mL).

For `Cc1[nH]c(=O)[nH]c(=O)c1CC(=O)O`, which solubility (25 °C) is on record?
The solubility was 4.89 mM (≈ 900 µg/mL).

Which solubility (20 °C) does the source give for `OCc1ccc(O)cc1` here?
Its solubility is 54 mM (≈ 6700 µg/mL).

With `O=C(O)CC(SC(CC(=O)O)C(=O)O)C(=O)O` (stereo not given) as the molecule, how does the solubility (20 °C) read?
The solubility was 323 mM (≈ 86000 µg/mL).

With `O=C(O)C(=O)C(c1ccccc1)c1ccccc1` as the molecule, how does the solubility read?
The solubility was 4.62 mM (≈ 1110 µg/mL).

Which solubility does the source give for `CCS(=O)(=O)CI` here?
The solubility was 107 mM (≈ 25000 µg/mL).

For `NC(C(=O)O)C(O)C(=O)O` (stereo not given), which solubility (25 °C) is on record?
The solubility was 149 mM (≈ 22200 µg/mL).

With `O=S(=O)(c1ccccc1O)c1ccccc1O` as the molecule, how does the solubility (23 °C) read?
Its solubility is 0.48 mM (≈ 120 µg/mL).

With `CC(=O)CC(CC(=O)O)c1ccccc1` (stereo not given) as the molecule, how does the solubility (25 °C) read?
Its solubility is 35.8 mM (≈ 7380 µg/mL).

For `N#CCCNC(Cc1ccccc1)C(=O)O` (racemic), which solubility (26 °C) is on record?
The solubility was 32.1 mM (≈ 7000 µg/mL).

For `CCOC(OCC)C(Cl)(Cl)Cl`, which solubility is on record?
The solubility was 22.6 mM (≈ 5000 µg/mL).

Which solubility (20 °C) does the source give for `COc1ccc2c(c1)Sc1ccc(Cl)cc1N2` here?
Its solubility is 0.0105 mM (≈ 2.77 µg/mL).

With `O=C(O)c1c(Cl)ccc2ccccc12` as the molecule, how does the solubility (20 °C) read?
Its solubility is 4.84 mM (≈ 1000 µg/mL).

With `O=c1ccc(I)c[nH]1` as the molecule, how does the solubility (20 °C) read?
Its solubility is 18.1 mM (≈ 4000 µg/mL).

For `CCCCOC(=O)CCC(=O)OCCCC`, which solubility is on record?
Its solubility is 0.999 mM (≈ 230 µg/mL).

Which solubility (25 °C) does the source give for `OCc1ccccc1CO` here?
The solubility was 1140 mM (≈ 158000 µg/mL).

With `CCCC(=O)Oc1ccc([N+](=O)[O-])cc1` as the molecule, how does the solubility (25 °C) read?
Its solubility is 0.115 mM (≈ 24 µg/mL).

For `Nc1ccc(S(=O)(=O)c2ccc(Cl)cc2)cc1`, which solubility (25 °C) is on record?
The solubility was 0.0747 mM (≈ 20 µg/mL).

For `CCCCCSS(=O)CCCCC` (stereo not given), which solubility is on record?
Its solubility is 0.674 mM (≈ 150 µg/mL).

Which solubility does the source give for `CCCOC(=O)C(C)(C)O` here?
Its solubility is 684 mM (≈ 100000 µg/mL).

For `N#CCCN(CCC#N)C(CC(=O)O)C(=O)O` (racemic), which solubility (25 °C) is on record?
Its solubility is 29.3 mM (≈ 7000 µg/mL).

For `O=c1[nH]c(=O)c2cc([N+](=O)[O-])cc([N+](=O)[O-])c2[nH]1`, which solubility (23 °C) is on record?
Its solubility is 0.623 mM (≈ 157 µg/mL).

Which solubility (25 °C) does the source give for `O=C(CCl)NC(=O)CCl` here?
Its solubility is 5.88 mM (≈ 1000 µg/mL).
